target: T1, C-C chemokine receptor type 3 (Homo sapiens, UniProt P51677); test: In vitro inhibition if C-C chemokine receptor type 3 (CCR3) using 150p M [125I]-labeled human eotaxin
T1 sequence (P51677 whole entry): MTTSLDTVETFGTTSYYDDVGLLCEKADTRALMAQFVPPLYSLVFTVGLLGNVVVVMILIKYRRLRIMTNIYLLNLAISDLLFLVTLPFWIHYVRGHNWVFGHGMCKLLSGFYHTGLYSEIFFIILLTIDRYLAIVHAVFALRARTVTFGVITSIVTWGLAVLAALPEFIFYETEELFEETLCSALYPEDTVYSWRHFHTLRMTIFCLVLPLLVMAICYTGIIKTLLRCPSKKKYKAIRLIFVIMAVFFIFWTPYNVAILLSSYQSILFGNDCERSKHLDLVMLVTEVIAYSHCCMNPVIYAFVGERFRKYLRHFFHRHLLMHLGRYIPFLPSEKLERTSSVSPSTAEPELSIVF

Going from `O=C(NCCCN1CCC(Cc2ccc(F)cc2)CC1)Nc1cccc(-c2ncc[nH]2)c1` to `O=C(NCCCN1CCC(Cc2ccc(F)cc2)CC1)Nc1cccc(-c2cccs2)c1`, the IC50 rises from 100 nM to 200 nM (2-fold).

Going from `O=C(NCCCN1CCC(Cc2ccccc2)CC1)Nc1ccccc1` to `O=C(NCCCN1CCC(Cc2ccc(F)cc2)CC1)Nc1ccccc1`, the IC50 falls from 400 nM to 30 nM (13-fold). The second is the more potent here.

First: N#Cc1cccc(NC(=O)NCCCN2CCC(Cc3ccc(Cl)cc3)CC2)c1
Second: Cc1ccc(CC2CCN(CCCNC(=O)Nc3cccc(C#N)c3)CC2)cc1
The IC50 of the first is 25-fold lower: 20 nM for the first, 500 nM for the second.

`COc1cccc(NC(=O)N2CCCCC2CN2CCC(Cc3ccc(F)cc3)CC2)c1` (racemic) and `COc1cccc(NC(=O)N2CCC(CN3CCC(Cc4ccc(F)cc4)CC3)C2)c1` (racemic) are within 1.5-fold of each other in IC50: 170 nM for the first, 240 nM for the second.

Going from `COc1cccc(NC(=O)N2CCCC(CCN3CCC(Cc4ccc(F)cc4)CC3)C2)c1` (racemic) to `COc1cccc(NC(=O)N2CCCC(N3CCC(Cc4ccc(F)cc4)CC3)C2)c1` (racemic), the IC50 rises from 250 nM to 530 nM (2.1-fold).

Going from `CC(=O)c1cccc(NC(=O)NCCCN2CC[C@H](Cc3ccccc3)C[C@@H]2C(C)(O)O)c1` to `CC(=O)c1cccc(NC(=O)NCCCN2CC[C@H](Cc3ccccc3)C[C@@H]2C(C)(C)O)c1`, the IC50 rises from 50 nM to 200 nM (4-fold).

Compared with `COc1cccc(NC(=O)NCCCN2CCC(Cc3ccccc3)CC2)c1`, `N#Cc1cccc(NC(=O)NCCCN2CCC(Cc3ccccc3)CC2)c1` is 1.5-fold lower in IC50: 300 nM for the first, 200 nM for the second. The second is the more potent here.

Going from `CN(C)c1ccc(NC(=O)NCCCN2CC[C@@H]3[C@H](C2)c2cccc4c2N3CC4)cc1` to `O=C(NCCCN1CC[C@@H]2[C@H](C1)c1cccc3c1N2CC3)Nc1ccc(I)cc1`, the IC50 falls from 4800 nM to 1500 nM (3.2-fold).

Compared with `CCCC[C@H](O)[C@H]1C[C@@H](Cc2ccccc2)CCN1CCCNC(=O)Nc1cccc(C(C)=O)c1` (stereo in doubt; form 2), `CCC[C@H](O)[C@H]1C[C@@H](Cc2ccccc2)CCN1CCCNC(=O)Nc1cccc(C(C)=O)c1` is 11-fold lower in IC50: 80 nM for the first, 7 nM for the second.

Compared with `O=C(CCCN1CC[C@@H]2[C@H](C1)c1cccc3c1N2CC3)c1ccc(F)cc1`, `O=C(NCCCN1CC[C@@H]2[C@H](C1)c1cccc3c1N2CC3)c1ccc(F)cc1` is 5-fold higher in IC50: 1100 nM for the first, 5500 nM for the second.

Compared with `O=S(=O)(NCCCN1CC[C@@H]2[C@H](C1)c1cccc3c1N2CC3)c1ccc(F)cc1`, `O=S(=O)(NCCCCN1CC[C@@H]2[C@H](C1)c1cccc3c1N2CC3)c1ccc(F)cc1` is 1.6-fold lower in IC50: 10100 nM for the first, 6400 nM for the second.

`O=C(NCCCCN1CCC(Cc2ccccc2)CC1)c1ccccc1` and `O=C(NCCCCN1CCC(Cc2ccccc2)CC1)c1ccc(F)cc1` are within 1.5-fold of each other in IC50: 800 nM for the first, 1000 nM for the second.

First: CC(=O)c1cccc(NC(=O)NCCCN2CC[C@H](Cc3ccccc3)C[C@@H]2[C@H](C)O)c1
Second: CC(=O)c1cccc(NC(=O)NCCCN2CC[C@H](Cc3ccccc3)C[C@@H]2[C@H](O)C(C)C)c1
The IC50 of the first is 5-fold lower: 20 nM for the first, 100 nM for the second. The first is the more potent here.

Compared with `CC(=O)c1ccc(NC(=O)NCCCN2CCC(Cc3ccc(F)cc3)CC2)cc1`, `CC(=O)c1cccc(NC(=O)NCCCN2CCC(Cc3ccc(F)cc3)CC2)c1` is 20-fold lower in IC50: 200 nM for the first, 10 nM for the second. The second is the more potent here.

Going from `O=C(NCCCN1CC[C@@H]2[C@H](C1)c1cccc3c1N2CC3)Nc1cccc(I)c1` to `N#Cc1cccc(NC(=O)NCCCN2CC[C@@H]3[C@H](C2)c2cccc4c2N3CC4)c1`, the IC50 falls from 1100 nM to 700 nM (1.6-fold).

Compared with `CSc1cccc(NC(=O)NCCCN2CCC(Cc3ccc(F)cc3)CC2)c1`, `COc1cccc(NC(=O)NCCCN2CCC(Cc3ccc(F)cc3)CC2)c1` is 1.5-fold higher in IC50: 20 nM for the first, 30 nM for the second. The first is the more potent here.

`COc1cccc(NC(=O)N2CCC(N3CCC(Cc4ccccc4)CC3)CC2)c1` and `COc1cccc(NC(=O)N2CCC(CN3CCC(Cc4ccccc4)CC3)CC2)c1` are within 1.5-fold of each other in IC50: 2300 nM for the first, 1600 nM for the second.

`CN(C)c1ccc(NC(=O)NCCCN2CCC(Cc3ccccc3)CC2)cc1` and `O=C(NCCCN1CCC(Cc2ccccc2)CC1)Nc1ccc(C(F)(F)F)cc1` are within 1.5-fold of each other in IC50: 1600 nM for the first, 1200 nM for the second.

`O=C(NCCCN1CCC(Cc2ccc(F)cc2)CC1)Nc1cccc([N+](=O)[O-])c1` and `O=C(NCCCN1CCC(Cc2ccc(F)cc2)CC1)Nc1ccc([N+](=O)[O-])cc1` are within 1.5-fold of each other in IC50: 9 nM for the first, 7 nM for the second.

`O=C(NCCCN1CCC(Cc2ccc(F)cc2)CC1)Nc1ccc(C(F)(F)F)cc1` and `O=C(NCCCN1CCC(Cc2ccc(F)cc2)CC1)Nc1cccc(C(F)(F)F)c1` are within 1.5-fold of each other in IC50: 60 nM for the first, 70 nM for the second.

`O=C(NCCCN1CCC(Cc2ccc(F)cc2)CC1)NC1CCCCC1` and `O=C(NCCCN1CCC(Cc2ccc(F)cc2)CC1)NC12CC3CC(CC(C3)C1)C2` are within 1.5-fold of each other in IC50: 100 nM for the first, 90 nM for the second.

`N#Cc1cccc(NC(=O)NCCCN2CCC(Cc3ccc(F)cc3)CC2)c1` and `N#Cc1ccc(NC(=O)NCCCN2CCC(Cc3ccc(F)cc3)CC2)cc1` are the same in IC50: 20 nM for the first, 20 nM for the second.

First: CS(=O)(=O)c1ccc(NC(=O)NCCCN2CCC(Cc3ccc(F)cc3)CC2)cc1
Second: CS(=O)(=O)c1cccc(NC(=O)NCCCN2CCC(Cc3ccc(F)cc3)CC2)c1
The IC50 of the first is 3.5-fold higher: 70 nM for the first, 20 nM for the second.

Going from `O=C(NCCCN1CCC(Cc2ccc(F)cc2)CC1)Nc1ccccc1[N+](=O)[O-]` to `O=C(NCCCN1CCC(Cc2ccc(F)cc2)CC1)Nc1ccccc1C(F)(F)F`, the IC50 rises from 89 nM to 200 nM (2.2-fold).

First: CC(=O)c1cccc(NC(=O)NCCCN2CC[C@H](Cc3ccccc3)C[C@@H]2Cc2ccccc2)c1
Second: CCC[C@H]1C[C@@H](Cc2ccccc2)CCN1CCCNC(=O)Nc1cccc(C(C)=O)c1 (stereo in doubt; 79)
The IC50 of the first is 2-fold higher: 200 nM for the first, 100 nM for the second. The second is the more potent here.

First: COc1cccc(C(=O)NCCCCN2CC[C@@H]3[C@H](C2)c2cccc4c2N3CC4)c1
Second: COc1ccc(C(=O)NCCCCN2CC[C@@H]3[C@H](C2)c2cccc4c2N3CC4)cc1
The IC50 of the first is 1.6-fold higher: 8100 nM for the first, 5100 nM for the second.

`N#Cc1ccc(C(=O)NCCCCN2CCC(Cc3ccccc3)CC2)cc1` and `COc1cccc(C(=O)NCCCCN2CCC(Cc3ccccc3)CC2)c1` are within 1.5-fold of each other in IC50: 1300 nM for the first, 1200 nM for the second.

Going from `CC(=O)c1cccc(NC(=O)NCCCN2CC[C@H](Cc3ccccc3)C[C@@H]2[C@H](O)CC(C)C)c1` to `CC(=O)c1cccc(NC(=O)NCCCN2CC[C@H](Cc3ccccc3)C[C@@H]2[C@@H](O)CC(C)C)c1`, the IC50 falls from 60 nM to 20 nM (3-fold). The second is the more potent here.

`O=C(NCCCN1CC[C@@H]2[C@H](C1)c1cccc3c1N2CC3)Nc1ccc(C(F)(F)F)cc1` and `O=C(NCCCCN1CC[C@@H]2[C@H](C1)c1cccc3c1N2CC3)c1ccc(F)cc1` are within 1.5-fold of each other in IC50: 3700 nM for the first, 3900 nM for the second.

Going from `Fc1ccc(CCCN2CC[C@@H]3[C@H](C2)c2cccc4c2N3CC4)cc1` to `O=C(NCCN1CC[C@@H]2[C@H](C1)c1cccc3c1N2CC3)c1ccc(F)cc1`, the IC50 rises from 500 nM to 8300 nM (17-fold). The first is the more potent here.

Compared with `C[S+]([O-])c1cccc(NC(=O)NCCCN2CCC(Cc3ccc(F)cc3)CC2)c1` (centres undefined), `C[S+]([O-])c1ccc(NC(=O)NCCCN2CCC(Cc3ccc(F)cc3)CC2)cc1` (centres undefined) is 4-fold higher in IC50: 50 nM for the first, 200 nM for the second.

Going from `CC[C@H](O)[C@H]1C[C@@H](Cc2ccccc2)CCN1CCCNC(=O)Nc1cccc(C(C)=O)c1` (stereo in doubt; 85) to `CC[C@@H](O)[C@H]1C[C@@H](Cc2ccccc2)CCN1CCCNC(=O)Nc1cccc(C(C)=O)c1`, the IC50 rises from 6 nM to 50 nM (8.3-fold). The first is the more potent here.

First: N#Cc1cccc(NC(=O)NCCCN2CCC(Cc3ccccc3F)CC2)c1
Second: N#Cc1cccc(NC(=O)NCCCCN2CCC(Cc3ccccc3)CC2)c1
The IC50 of the first is 2.5-fold lower: 200 nM for the first, 500 nM for the second.

First: N#Cc1cccc(NC(=O)NCCCCCN2CCC(Cc3ccccc3)CC2)c1
Second: N#Cc1cccc(NC(=O)NCCN2CCC(Cc3ccccc3)CC2)c1
The IC50 of the first is 2.4-fold higher: 1200 nM for the first, 500 nM for the second.

First: CCCC[C@H](O)[C@H]1C[C@@H](Cc2ccccc2)CCN1CCCNC(=O)Nc1cccc(C(C)=O)c1 (stereo in doubt; form 1)
Second: CC[C@H](O)[C@H]1C[C@@H](Cc2ccccc2)CCN1CCCNC(=O)Nc1cccc(C(C)=O)c1 (stereo in doubt)
The IC50 of the first is 8-fold lower: 1 nM for the first, 8 nM for the second. The first is the more potent here.

`COc1cccc(NC(=O)N2CCCC(CN3CCC(Cc4ccccc4)CC3)C2)c1` (racemic) and `COc1cccc(NC(=O)N2CCO[C@@H](CN3CCC(Cc4ccc(F)cc4)CC3)C2)c1` are within 1.5-fold of each other in IC50: 330 nM for the first, 260 nM for the second.

Going from `Cn1nnnc1-c1cccc(NC(=O)NCCCN2CCC(Cc3ccc(F)cc3)CC2)c1` to `O=C(NCCCN1CCC(Cc2ccc(F)cc2)CC1)Nc1cccc(-c2ccco2)c1`, the IC50 rises from 5 nM to 100 nM (20-fold). The first is the more potent here.

Going from `CCC[C@H]1C[C@@H](Cc2ccccc2)CCN1CCCNC(=O)Nc1cccc(C(C)=O)c1` (stereo in doubt) to `CC(=O)c1cccc(NC(=O)NCCCN2CC[C@H](Cc3ccccc3)C[C@@H]2[C@@H](O)C(C)C)c1`, the IC50 falls from 200 nM to 50 nM (4-fold). The second is the more potent here.

Going from `COc1ccccc1C(=O)NCCCCN1CC[C@@H]2[C@H](C1)c1cccc3c1N2CC3` to `O=C(NCCCN1CCC(Cc2ccc(F)cc2)CC1)NCc1ccccc1`, the IC50 falls from 6800 nM to 400 nM (17-fold). The second is the more potent here.

First: CSc1ccc(NC(=O)NCCCN2CCC(Cc3ccc(F)cc3)CC2)cc1
Second: O=C(NCCCN1CCC(Cc2ccc(F)cc2)CC1)NCCc1ccccc1
The IC50 of the first is 7.5-fold lower: 40 nM for the first, 300 nM for the second. The first is the more potent here.

Going from `CCCC[C@H](O)[C@H]1C[C@@H](Cc2ccccc2)CCN1CCCNC(=O)Nc1cccc(-c2nnnn2C)c1` to `CCCC[C@H](O)[C@H]1C[C@@H](Cc2ccc(F)cc2)CCN1CCCNC(=O)Nc1cccc(C(C)=O)c1`, the IC50 rises from 1 nM to 5 nM (5-fold). The first is the more potent here.

In the case of `COc1cccc(NC(=O)N2CCO[C@H](CN3CCC(Cc4ccc(F)cc4)CC3)C2)c1`, the IC50 is reported as 30 nM.

target: T2, C-C chemokine receptor type 3 (Homo sapiens) (UniProt P51677); test: In vitro inhibitory activity against C-C chemokine receptor type 3 at 10 uM using 150p M [125I]-labeled human eotaxin
T2 sequence (whole entry): T1 sequence (P51677 whole entry)

Going from `Fc1ccc(CCN2CC[C@@H]3[C@H](C2)c2cccc4c2N3CC4)cc1` to `Fc1ccc(CCCN2CC[C@@H]3[C@H](C2)c2cccc4c2N3CC4)cc1`, the inhibition rises from 50% to 100%.

First: NCCCN1CC[C@@H]2[C@H](C1)c1cccc3c1N2CC3
Second: NCCCCN1CC[C@@H]2[C@H](C1)c1cccc3c1N2CC3
The inhibition of the first is higher: 14% for the first, 5% for the second.

`Fc1ccc(CN2CC[C@@H]3[C@H](C2)c2cccc4c2N3CC4)cc1` and `NCCN1CC[C@@H]2[C@H](C1)c1cccc3c1N2CC3` are the same in inhibition: 15% for the first, 15% for the second.
